A value given as a limit tells only on which side of the number the result lay.

The values below come from US9783536B2, “Nitrogen-containing heterocyclic compound or salt thereof” (FUJIFILM Corporation, priority 2013, dated 2017).

For one experiment, the target named is T1, human PI3Kα protein (Homo sapiens, UniProt P42336).
T1 construct: purchased Carna Biosciences, Inc; host or cells: baculovirus expression system
Kind of experiment: PI3Kα enzyme assay (ADP-Glo). Format: biochemical. As to conditions: read-out: PI3Kα enzyme inhibitory activity. In short, it runs like this: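 Biotinylated human PI3Kα (baculovirus-expressed, 4.5 nmol/L) pre-incubated 15 min with compound in Tris-HCl pH 7.5, MgCl2, BSA; reaction 60 min at 25° C with 50 μmol/L PIP2 and 100 μmol/L ATP final. ADP quantified by ADP-Glo luminescence; IC50 calculated.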
A general note: In ADP-Glo the light output rises with the ADP produced.

The target of experiment [1] is T2, GST fusion human ERK2 protein (Homo sapiens, UniProt P28482).
T2 construct: purchased Carna Biosciences, Inc; host or cells: E. coli expression system
Description: ERK2 enzyme assay (1). It is filed as biochemical. The note with it: ERK2 enzyme assay (1); read-out: ERK2 enzyme inhibitory activity (1). In short, it runs like this: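 IC50 derived from the proportion of phosphorylated 5-FAM peptide, separated from unphosphorylated peptide by microfluidic mobility shift. Compound was first preincubated 15 min at room temperature with 2.5 nmol/L kinase at pH 7.5, then 43.1 μmol/L ATP plus 4.25 μmol/L substrate reacted 120 min at 25 °C.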

T1 sequence (P42336 whole entry): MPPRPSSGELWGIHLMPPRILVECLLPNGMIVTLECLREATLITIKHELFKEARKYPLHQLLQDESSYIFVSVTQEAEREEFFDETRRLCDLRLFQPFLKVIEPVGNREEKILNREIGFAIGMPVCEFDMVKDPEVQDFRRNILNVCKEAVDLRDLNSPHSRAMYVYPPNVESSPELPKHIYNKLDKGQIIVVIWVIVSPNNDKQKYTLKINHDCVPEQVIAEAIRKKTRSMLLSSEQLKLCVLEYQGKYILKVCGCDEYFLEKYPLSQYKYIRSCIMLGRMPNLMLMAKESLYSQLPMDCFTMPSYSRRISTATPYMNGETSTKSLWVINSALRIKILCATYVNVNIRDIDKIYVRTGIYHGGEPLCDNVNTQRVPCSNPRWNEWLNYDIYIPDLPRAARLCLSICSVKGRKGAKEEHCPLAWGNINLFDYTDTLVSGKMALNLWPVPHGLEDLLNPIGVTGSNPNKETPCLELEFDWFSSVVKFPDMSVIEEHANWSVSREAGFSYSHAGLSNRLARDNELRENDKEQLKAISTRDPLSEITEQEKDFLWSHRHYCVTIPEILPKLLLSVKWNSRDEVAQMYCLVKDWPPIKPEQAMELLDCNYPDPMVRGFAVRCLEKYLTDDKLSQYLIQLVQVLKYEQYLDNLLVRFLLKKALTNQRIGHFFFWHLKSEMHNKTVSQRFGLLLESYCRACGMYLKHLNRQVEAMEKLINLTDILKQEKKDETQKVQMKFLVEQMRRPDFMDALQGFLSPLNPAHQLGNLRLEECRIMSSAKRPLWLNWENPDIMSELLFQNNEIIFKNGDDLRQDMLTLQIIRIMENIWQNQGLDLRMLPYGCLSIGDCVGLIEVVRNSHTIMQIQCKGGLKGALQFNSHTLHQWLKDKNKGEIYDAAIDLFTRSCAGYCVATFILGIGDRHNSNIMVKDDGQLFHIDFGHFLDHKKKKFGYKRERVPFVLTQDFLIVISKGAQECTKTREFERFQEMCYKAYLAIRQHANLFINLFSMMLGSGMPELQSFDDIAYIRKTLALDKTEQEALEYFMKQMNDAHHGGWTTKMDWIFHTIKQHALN
T1 sequence (P27986 whole entry partner): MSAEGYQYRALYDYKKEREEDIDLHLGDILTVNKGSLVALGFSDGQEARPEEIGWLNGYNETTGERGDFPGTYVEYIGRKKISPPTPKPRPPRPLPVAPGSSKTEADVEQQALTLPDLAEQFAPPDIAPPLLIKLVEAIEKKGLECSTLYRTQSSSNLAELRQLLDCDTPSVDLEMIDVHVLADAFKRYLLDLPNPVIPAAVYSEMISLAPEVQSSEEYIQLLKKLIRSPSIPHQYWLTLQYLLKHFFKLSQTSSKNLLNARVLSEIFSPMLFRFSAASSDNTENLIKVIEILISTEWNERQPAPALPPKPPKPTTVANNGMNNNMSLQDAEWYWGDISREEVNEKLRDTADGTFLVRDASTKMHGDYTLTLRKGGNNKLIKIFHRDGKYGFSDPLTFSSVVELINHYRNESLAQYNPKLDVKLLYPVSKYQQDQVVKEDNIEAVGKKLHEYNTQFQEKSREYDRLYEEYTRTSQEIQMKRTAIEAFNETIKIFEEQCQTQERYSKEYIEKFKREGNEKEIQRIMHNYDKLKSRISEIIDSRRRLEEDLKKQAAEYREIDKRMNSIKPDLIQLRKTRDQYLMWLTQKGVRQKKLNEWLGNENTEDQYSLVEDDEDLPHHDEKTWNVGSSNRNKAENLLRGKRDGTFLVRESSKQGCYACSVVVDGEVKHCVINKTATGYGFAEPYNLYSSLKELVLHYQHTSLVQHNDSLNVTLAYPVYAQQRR
T2 sequence (P28482 whole entry, the tested form may be a part): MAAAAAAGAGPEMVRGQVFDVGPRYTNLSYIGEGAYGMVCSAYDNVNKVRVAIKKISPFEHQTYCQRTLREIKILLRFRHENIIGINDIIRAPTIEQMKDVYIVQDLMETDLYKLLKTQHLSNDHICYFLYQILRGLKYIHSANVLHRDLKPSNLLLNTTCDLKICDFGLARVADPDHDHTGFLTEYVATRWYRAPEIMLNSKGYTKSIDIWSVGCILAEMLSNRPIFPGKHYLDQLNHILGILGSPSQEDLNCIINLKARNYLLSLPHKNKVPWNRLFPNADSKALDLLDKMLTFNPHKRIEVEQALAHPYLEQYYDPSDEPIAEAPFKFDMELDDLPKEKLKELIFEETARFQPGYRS

As to `c1cnc(Nc2cnc3ccc(Nc4nnc(C5CCCC5)s4)nc3c2)cn1` [Example 0209], the IC50 (at human PI3Kα protein; in experiment [1]) was less than 1 µM in each case.

`c1cc(Nc2cnc3ccc(Nc4nnc(C5CCCC5)s4)nc3c2)ncn1` [Example 0210]: the IC50 (on human PI3Kα protein; in experiment [1]) was less than 1 µM throughout.

As to `COc1ccccc1Nc1cnc2ccc(Nc3nnc(C4CCCC4)s3)nc2c1` [Example 0219, N^2-(5-cyclopentyl-1,3,4-thiadiazol-2-yl)-N^7-(2-methoxyphenyl)-1,5-naphthyridine-2,7-diamine], the IC50 was in the range of 10 to 50 µM on human PI3Kα protein and 1 to 10 µM in experiment [1].

`COc1cccc(Nc2cnc3ccc(Nc4nnc(C5CCCC5)s4)nc3c2)c1` [Example 0220, N^2-(5-cyclopentyl-1,3,4-thiadiazol-2-yl)-N^7-(3-methoxyphenyl)-1,5-naphthyridine-2,7-diamine]: the IC50 on human PI3Kα protein is less than 1 µM; in experiment [1], 1 to 10 µM.

With `c1cc(Nc2cnc3ccc(Nc4nnc(C5CCCC5)s4)nc3c2)ccc1CN1CCOCC1` [Example 0221, N^2-(5-cyclopentyl-1,3,4-thiadiazol-2-yl)-N^7-(4-(morpholinomethyl)phenyl)-1,5-naphthyridine-2,7-diamine], the IC50 (at human PI3Kα protein; in experiment [1]) was less than 1 µM in each case.

For `c1n[nH]cc1Nc1cnc2ccc(Nc3nnc(C4CCCCC4)s3)nc2c1` [Example 0223], the IC50 on human PI3Kα protein is 1 to 10 µM; in experiment [1] it was less than 1 µM.

With `c1cnnc(Nc2cnc3ccc(Nc4nnc(C5CCCC5)s4)nc3c2)c1` [Example 0224, N^2-(5-cyclopentyl-1,3,4-thiadiazol-2-yl)-N^7-(pyridazin-3-yl)-1,5-naphthyridine-2,7-diamine], the IC50 (at human PI3Kα protein; in experiment [1]) was less than 1 µM each time.

For the molecule `c1n[nH]cc1Nc1cnc2ccc(Nc3nnc(N4CCOCC4)s3)nc2c1` [Example 0225, N^2-(5-morpholino-1,3,4-thiadiazol-2-yl)-N^7-(1H-pyrazol-4-yl)-1,5-naphthyridine-2,7-diamine], the IC50 is 1 to 10 µM at human PI3Kα protein and less than 1 µM in experiment [1].

For `c1n[nH]cc1Nc1cnc2ccc(Nc3nnc(C4CCCO4)s3)nc2c1` (stereo not shown) [Example 0228], the IC50 (at human PI3Kα protein; in experiment [1]) was less than 1 µM in each case.

With `Cc1cc(-c2cnc3ccc(Nc4cc(C(C)C)cnn4)nc3c2)ccn1` [Example 0229], the IC50 (on human PI3Kα protein; in experiment [1]) was less than 1 µM in each case.

`c1nc2ccc(Nc3nnc(CC4CCCC4)s3)nc2cc1-c1cnn(CCCN2CCCC2)c1` [Example 0234]: the IC50 (at human PI3Kα protein; in experiment [1]) was less than 1 µM in each case.

Take `OCc1nnc(Nc2ccc3ncc(-c4cnn(CCCN5CCCC5)c4)cc3n2)s1` [Example 0239, (5-((7-(1-(3-(Pyrrolidin-1-yl)propyl)-1H-pyrazol-4-yl)-1,5-naphthyridin-2-yl)amino)-1,3,4-thiadiazol-2-yl)methanol]: the IC50 (on human PI3Kα protein; in experiment [1]) was less than 1 µM in each case.

In the case of `c1nc2ccc(Nc3nnc(C4CCCCO4)s3)nc2cc1-c1cnn(CCCN2CCCC2)c1` (stereo not shown) [Example 0244, N-(7-(1-(3-(pyrrolidin-1-yl)propyl)-1H-pyrazol-4-yl)-1,5-naphthyridin-2-yl)-5-(tetrahydro-2H-pyran-2-yl)-1,3,4-thiadiazole-2-amine], the IC50 (at human PI3Kα protein; in experiment [1]) was less than 1 µM each time.

Take `CNc1nnc(Nc2ccc3ncc(-c4cnn(CCN5CCOCC5)c4)cc3n2)s1` [Example 0249, N^2-methyl-N^5-(7-(1-(2-morpholinoethyl)-1H-pyrazol-4-yl)-1,5-naphthyridin-2-yl)-1,3,4-thiadiazole-2,5-diamine]: the IC50 (on human PI3Kα protein; in experiment [1]) was less than 1 µM each time.

For the molecule `Nc1nnc(Nc2ccc3ncc(-c4cnn(CCN5CCOCC5)c4)cc3n2)s1` [Example 0254, N^2-(7-(1-(2-morpholinoethyl)-1H-pyrazol-4-yl)-1,5-naphthyridin-2-yl)-1,3,4-thiadiazole-2,5-diamine], the IC50 (at human PI3Kα protein; in experiment [1]) was less than 1 µM in each case.

On to `c1nc2ccc(Nc3nnc(CN4CCOCC4)s3)nc2cc1-c1cnn(CCCN2CCCC2)c1` [Example 0255, 5-(morpholinomethyl)-N-(7-(1-(3-(pyrrolidin-1-yl)propyl)-1H-pyrazol-4-yl)-1,5-naphthyridin-2-yl)-1,3,4-thiadiazole-2-amine], for which the IC50 at human PI3Kα protein was 1 to 10 µM; in experiment [1] it was less than 1 µM.

As for `c1nc2ccc(Nc3nnc(CC4CC4)s3)nc2cc1-c1cnn(CCCN2CCCC2)c1` [Example 0256, 5-(Cyclopropylmethyl)-N-(7-(1-(3-(pyrrolidin-1-yl)propyl)-1H-pyrazol-4-yl)-1,5-naphthyridin-2-yl)-1,3,4-thiadiazole-2-amine], the IC50 (at human PI3Kα protein; in experiment [1]) was less than 1 µM each time.

For `CC(O)c1nnc(Nc2ccc3ncc(-c4cnn(CCCN5CCCC5)c4)cc3n2)s1` (stereo not shown) [Example 0259], the IC50 (at human PI3Kα protein; in experiment [1]) was less than 1 µM throughout.

Regarding `CC(C)(O)Cc1nnc(Nc2ccc3ncc(-c4cnn(CCCN5CCCC5)c4)cc3n2)s1` [Example 0260], the IC50 (at human PI3Kα protein; in experiment [1]) was less than 1 µM each time.

Turning to `CCC(C)c1nnc(Nc2ccc3ncc(-c4cnn(CCCN5CCCC5)c4)cc3n2)s1` (stereo not shown) [Example 0263], the IC50 (on human PI3Kα protein; in experiment [1]) was less than 1 µM in each case.

In the case of `CC(C)c1nnc(Nc2ccc3nccc(-c4ccccc4)c3n2)s1` [Example 0264, 5-isopropyl-N-(8-phenyl-1,5-naphthyridin-2-yl)-1,3,4-thiadiazole-2-amine], the results for the IC50 (at human PI3Kα protein; in experiment [1]) were 1 to 10 µM and less than 1 µM, respectively.

As to `CC(C)c1nnc(Nc2ccc3nccc(-c4cccnc4)c3n2)s1` [Example 0268, 5-isopropyl-N-(8-(pyridin-3-yl)-1,5-naphthyridin-2-yl)-1,3,4-thiadiazole-2-amine], the IC50 (at human PI3Kα protein; in experiment [1]) was less than 1 µM throughout.

Turning to `CC(C)c1nnc(Nc2ccc3nccc(-c4ccncc4)c3n2)s1` [Example 0269, 5-isopropyl-N-(8-(pyridin-4-yl)-1,5-naphthyridin-2-yl)-1,3,4-thiadiazole-2-amine], the IC50 (on human PI3Kα protein; in experiment [1]) was less than 1 µM in each case.

For the molecule `COc1ccccc1-c1ccnc2ccc(Nc3nnc(C(C)C)s3)nc12` [Example 0270], the IC50 (on human PI3Kα protein; in experiment [1]) was less than 1 µM throughout.

Consider `COc1ccc(-c2ccnc3ccc(Nc4nnc(C(C)C)s4)nc23)cc1` [Example 0272], for which the IC50 at human PI3Kα protein is 1 to 10 µM; in experiment [1], less than 1 µM.

With `CC(C)c1nnc(Nc2ccc3nccc(-c4cnn(C)c4)c3n2)s1` [Example 0273], the IC50 (at human PI3Kα protein; in experiment [1]) was less than 1 µM in each case.

`CC(C)c1nnc(Nc2ccc3nccc(-c4cnn(CCN5CCOCC5)c4)c3n2)s1` [Example 0274]: the IC50 at human PI3Kα protein is less than 1 µM; in experiment [1], 1 to 10 µM.

As for `c1cc(-c2ccnc3ccc(Nc4nncs4)nc23)ccn1` [Example 0275], the IC50 (at human PI3Kα protein; in experiment [1]) was less than 1 µM throughout.

`Cc1cc(Nc2ccc3ncc(-c4cnn(C)c4)cc3n2)n[nH]1` [Example 0277, N-(5-methyl-1H-pyrazol-3-yl)-7-(1-methyl-1H-pyrazol-4-yl)-1,5-naphthyridine-2-amine]: the IC50 (at human PI3Kα protein; in experiment [1]) was 1 to 10 µM each time.
